The source of these data is patent publication US9814754B2, “Combinations with a backbone-cyclized peptide” (POLYPHOR AG, priority 2012, dated 2017).

Square brackets hold non-standard residues; d marks the D form. dDab = NCC[C@@H](N)C(=O)O; Orn = NCCC[C@H](N)C(=O)O; Dab = NCC[C@H](N)C(=O)O

What all share (type): in vivo
The subject of assay [1] is Pseudomonas aeruginosa clinical isolate PAX11045. Kind of assay: Murine pneumonia model, compound 1 alone (Reference 1). The protocol: Efficacy in Murine Pneumonia Model Against Pseudomonas aeruginosa PAX11045 and Estimation of ED50
The efficacy and ED50 of the compound of formula (I) (“compound 1”) was determined against Pseudomonas aeruginosa clinical isolate PAX11045 in a pneumonia model in mice. Colony counts in the lungs and spleen were determined at 20 hours post treatment.
Fresh overnight colonies of PAX11045 from a 5% Horse Blood Agar plate were suspended in 0.9% sterile saline to approximately 10^8 CFU/ml and further diluted to approximately 5×10^7 CFU/ml. Female mice (DBA/2, outbred, 18-22 g, Charles River) were anesthetized with 0.08 ml of Zoletil (tiletamine+zolazepam) and inoculated via the nose with a pipette with 0.05 ml of the bacteria suspension containing approximately 10^6 CFU. 4 hours after inoculation, the mice were treated orally with 45 μl neurophen (20 mg ibuprofen/ml corresponding to approximately 30 mg/kg) as pain relief.
One vial was further 2-fold diluted with saline to 2.25, 1.125, 0.56 and 0.28 mg/ml. The mice were treated subcutaneously with 0.2 ml in the neck region with a single dose at 4 hours post infection with a dose calculation based on a mean animal weight of 20 g.
Colony counts were determined post inoculation at 4 hours (untreated mice) and 24 hours (treated and vehicle-only treated mice). Immediately after the mice were sacrificed, the lungs and spleens were collected and frozen at −20° C. After thawing, the organs were homogenized in 1 ml 0.9% saline. Each sample was then 10-fold diluted in saline and 20 μl spots were applied on blood agar plates. All agar plates were incubated 18-48 hours at 35° C. in ambient air.

Assay [2] relates to Pseudomonas aeruginosa clinical isolate PA9349. Kind of assay: Murine pneumonia model, compound 1 in combination with ciprofloxacin (Example 3). The protocol: Colony counts in lung were determined at 20 hours post treatment.
Fresh overnight colonies of PA9349 from a 5% Horse Blood Agar plate were suspended in 0.9% sterile saline to approximately 10^8 CFU/ml and further diluted to approximately 10^7 CFU/ml. Female mice (C57BL/6 […], outbred, 20-25 g, Hellenic Pasteur Institute) were anesthetized with ether and inoculated via the nose with a pipette with 0.05 ml of the bacteria suspension containing approximately 10^6 CFU. After inoculation, mice were treated with paracetamol suppositories as a pain relief.
The mice were treated subcutaneously with 0.2 ml in the neck region with a single dose at 3 hours post infection corresponding to 20 mg/kg on the basis of a mean animal weight of 20 g.
1 vial was further diluted with saline to 1, 0.8 and 0.4 mg/ml. The mice were treated subcutaneously with 0.25 ml (25 mg/kg dose) or 0.2 ml (for all other doses) in the neck region with a single dose at 4 hours post infection with a dose calculation based on a mean animal weight of 20 g.
Colony counts were determined post inoculation at 4 hours (untreated mice) and 24 hours (treated and vehicle-only treated mice). Immediately after the mice were sacrificed, the lungs were collected and frozen at −20° C. After thawing, the organs were homogenized in 1 ml 0.9% saline. Each sample was then 10 fold diluted in saline and 20 μl spots were applied on blood agar plates. All agar plates were incubated 18-24 hours at 35° C. in ambient air.

Assay [3] has as its system Pseudomonas aeruginosa clinical isolate PA18298. Kind of assay: Murine pneumonia model, compound 1 alone (Reference 3). The protocol:
Efficacy in Murine Pneumonia Model Against Pseudomonas aeruginosa PA18298 and Estimation of ED50
The efficacy and ED50 of the compound of formula (I) (“compound 1”) was determined against Pseudomonas aeruginosa clinical isolate PA18298 in a pneumonia model in mice. Colony counts in the lungs were determined at 18-20 hours post treatment.
Fresh overnight colonies of PA18298 from a 5% Horse Blood Agar plate were suspended in 0.9% sterile saline to approximately 10^8 CFU/ml and further diluted to approximately 4×10^7 CFU/ml. Female mice (DBA/2, outbred, 18-22 g, Charles River) were anesthetized with 0.1 ml of Zoletil (tiletamine+zolazepam) and inoculated via the nose with a pipette with 0.05 ml of the bacteria suspension containing approximately 1×10^6 CFU. 4 hours after inoculation, the mice were treated orally with 45 μl neurophen (20 mg ibuprofen/ml corresponding to approximately 30 mg/kg) as pain relief.
One vial containing 10 mg of active compound 1 was dissolved in 2 ml 0.9% sterile saline to a concentration of 5 mg/ml and was further diluted with saline to 2, 1, 0.75, 0.55, 0.275 and 0.137 mg/ml. The mice were treated subcutaneously with 0.2 ml in the neck region with a single dose at 4 hours post infection with a dose calculation based on a mean animal weight of 20 g. As positive control colistin was used in the same manner with a fixed dose of 20 mg/kg.
Colony counts were determined post inoculation at 4 hours (untreated mice) and 24 hours (treated and vehicle-only treated mice). Immediately after the mice were sacrificed, the lungs were collected and frozen at −20° C. After thawing, the organs were homogenized in 1 ml 0.9% saline. Each sample was then 10-fold diluted in saline and 20 μl spots were applied on blood agar plates. All agar plates were incubated 18-48 hours at 35° C. in ambient air.
The CFU/ml in the inoculum was determined to 7.49 log10 CFU/ml corresponding to 6.20 log10 CFU/mouse.
At 4 hours after infection the mean log10 CFU/lung was 5.05 and the CFU level declined to 2.62 at 24 hours post inoculation in the vehicle-only group.

Setting [4] is: compound 1 alone, s.c. single dose 4 h post infection, murine lungs.
The mark [5] stands for this setting: compound 1 alone, s.c., murine lungs.
Where [6] appears, read: compound 1 alone, s.c., murine lungs, sigmoidal dose-response model (variable slope).
[7] abbreviates: in presence of 20 mg/kg ciprofloxacin, murine lungs.

For “cyclo(TWI[Dab][Orn][dDab][Dab]W[Dab][Dab]AS[dP]P) [compound 1]”, the Bottom level in assay [1] (setting [4]) is −2.2 log10 CFU/ml; in assay [2] (setting [7]), −4.17 log10 CFU/ml; in assay [3] (setting [5]), −2.48 log10 CFU/ml. Also, the Top level in assay [1] (compound 1 alone, s.c. single dose 4 h post infection, murine lungs, sigmoidal dose-response model) was 1.3 log10 CFU/ml; in assay [2] (compound 1 s.c. in presence of 20 mg/kg ciprofloxacin (s.c., 3 h post infection), murine lungs) it was −0.21 log10 CFU/ml; in assay [3] (setting [4]), −3.60 log10 CFU/ml. The “1 log killing dose” value in assay [1] (setting [5]) is 8.1 mg/kg; in assay [2] (setting [7]), 0.45 mg/kg. In addition, the figures for the “2 log killing dose” value in assay [1] (setting [5]) and in assay [2] (setting [7]) were 20 mg/kg and 1.00 mg/kg, respectively. The figures for the Emax in assay [1] (setting [5]), in assay [2] (setting [7]) and in assay [3] (setting [5]) were 3.5 log10 CFU/ml, 3.96 log10 CFU/ml and 1.12 log10 CFU/ml, respectively. The values for the Static dose in assay [1] (setting [5]) and in assay [3] (setting [5]) were 1.55 mg/kg and 9.15 mg/kg, respectively. In addition, the ED50 (in general, the dose at which the effect has come halfway, by size or by number of responders) was 4.33 mg/kg in assay [1] (setting [6]); 1.55 mg/kg in assay [2] (in presence of fixed dose of 20 mg/kg ciprofloxacin, murine lungs); 26.6 mg/kg in assay [3] (setting [6]). For the same substance, the “CFU levels compared to vehicle treatment” value in assay [1] (compound 1 s.c. dose series, both organs (lungs and spleen), p<0.001 for the higher concentrations) is listed as “concentration dependent significant reduction of the CFU levels”; in assay [2] (combination of compound 1 at 1.88-25 mg/kg and ciprofloxacin 20 mg/kg, lung, p<0.001), “significant reduction of the CFU levels”; in assay [3] (11-20 mg/kg, lungs, p<0.01-p<0.001), “significant reduction of the CFU levels”. The “effect on bacterial loads” value in assay [2] (5.5 mg/kg alone, lung, p<0.001) was “significant effect on reducing the bacterial loads”. Also, the 3log killing dose in assay [2] (setting [7]) is on record as 1.82 mg/kg.
